Legend:
Rattus norvegicus [1] = species: Rattus norvegicus; test: Effective dose required to produce an increase in dP/dt5 by 1500 mmHg/s in rats; assay type: functional
Rattus norvegicus [2] = test: Maximum increase in dP/dt when administered intravenously in rats at 3 mg/kg dose.; assay type: functional; details: route intravenous
Felis catus [3] = species: Felis catus; test: Effective dose required to produce an increase in dP/dt5 by 1500 mmHg/s in cats; assay type: functional
Canis familiaris [4] = test: Time after which maximum increase in contractility was observed when administered orally in conscious dogs at 1 mg/kg; assay type: functional, Canis lupus familiaris; details: route oral
Canis familiaris [5] = test: Maximum increase in dP/dt60 when administered orally in dogs at dose 1 mg/kg; assay type: functional, Canis lupus familiaris; details: route oral
Canis familiaris [6] = species: Canis familiaris; test: Effective dose required to produce an increase in dP/dt5 by 1500 mmHg/s in dogs; assay type: functional, Canis lupus familiaris
Canis familiaris [7] = test: Amount of time during which increase in administered orally in conscious dogs at 1 mg/kg; assay type: functional, Canis lupus familiaris; details: route oral
Rattus norvegicus [8] = test: Maximum increase in dP/dt when administered intravenously in rats at 1 mg/kg.; assay type: functional; details: route intravenous
Canis familiaris [9] = test: Maximum increase in dP/dt when administered intravenously in dogs at 1 mg/kg dose.; assay type: functional, Canis lupus familiaris; details: route intravenous
Rattus norvegicus [10] = test: Maximum increase in dP/dt when administered intravenously in rats at 10 mg/kg dose.; assay type: functional; set-up: unit not given here; details: route intravenous
Felis catus [11] = test: Maximum increase in dP/dt when administered intravenously in cats at 3 mg/kg dose.; assay type: functional; details: route intravenous
Canis familiaris [12] = test: Maximum increase in dP/dt when administered intravenously in dogs at 0.3 mg/kg dose.; assay type: functional, Canis lupus familiaris; details: route intravenous
Rattus norvegicus [13] = test: Maximum increase in dP/dt when administered intravenously in rats at 1 mg/kg dose.; assay type: functional; set-up: unit not given here; details: route intravenous
Felis catus [14] = test: Maximum increase in dP/dt when administered intravenously in cats at 0.1 mg/kg dose.; assay type: functional; details: route intravenous
Rattus norvegicus [15] = test: Maximum increase in dP/dt when administered intravenously in rats at 3 mg/kg.; assay type: functional; details: route intravenous
Rattus norvegicus [16] = test: Maximum increase in dP/dt when administered intravenously in rats Value in parenthesis denotes dose at which test performed; assay type: functional

SMILES | ED1.5 (Rattus norvegicus [1]) [mg/kg] | Max (Rattus norvegicus [2]) [mHg s-1] | ED1.5 (Felis catus [3]) [mg/kg] | other results
CCCn1c(O)nc2cc3[nH]c(-c4ccncc4)nc3cc21 | 1 | 1.6 |  | 
COc1cc(S(C)(=O)=O)ccc1-c1nc2cc3c(cc2[nH]1)C(C)(C)C(=O)N3 | 2 | 1.8 |  | 
CC1(C)C(=O)Nc2cc3[nH]c(C(F)(F)F)nc3cc21 | 0.13 | 2.3 | 0.08 | 
Cc1cc2cc3c(cc2[nH]1)NC(=O)C3(C)C | >3 |  |  | 
CC(C)c1nc2cc3c(cc2[nH]1)C(C)(C)C(=O)N3 | 0.22 |  | 0.09 | Time (Canis familiaris [4]): 30 min; Max (Canis familiaris [5]): 2.2 mmHg s-1; ED1.5 (Canis familiaris [6]): 0.46 mg/kg; Duration (Canis familiaris [7]): 3 h; Max (Rattus norvegicus [8]): 2.3 mmHg s-1; Max (Canis familiaris [9]): 1.9 mHg s-1
Cn1c(O)nc2cc3[nH]c(O)nc3cc21 | >3 |  |  | 
Oc1nc2cc3[nH]c(-c4ccncc4)nc3cc2s1 | 0.2 |  |  | 
CC1(C)C(=O)Nc2cc3[nH]c(-c4ccnc5ccccc45)nc3cc21 | 2 | 1.8 |  | 
CC1(C)C(=O)Nc2cc3[nH]c(S)nc3cc21 | 0.55 | 3.5 | 0.06 | 
CC1(C)C(=O)Nc2cc3[nH]c(N)nc3cc21 | >3 |  |  | 
CC1(C)C(=O)Nc2cc3[nH]c(-c4ccccc4)nc3cc21 | 0.37 |  | 0.15 | Max (Rattus norvegicus [10]): 4.2; Max (Felis catus [11]): 3 mmHg s-1; Duration (Canis familiaris [7]): 0 h
COc1cc([S+](C)[O-])ccc1-c1nc2cc3c(cc2[nH]1)C(C)(C)C(=O)N3 (stereo not given) | >3 |  |  | 
CCCc1nc2cc3nc(O)oc3cc2[nH]1 | >3 |  |  | 
Oc1nc2cc3nc(-c4ccncc4)[nH]c3cc2o1 | 0.52 |  | 0.06 | Max (Rattus norvegicus [10]): 4.1; ED1.5 (Canis familiaris [6]): 0.12 mg/kg; Duration (Canis familiaris [7]): 0 h; Max (Canis familiaris [12]): 2.6 mHg/s
CC1(C)C(=O)Nc2cc3[nH]c(-c4nc[nH]n4)nc3cc21 | 0.1 | 3.1 | 0.02 | 
CN1C(=O)C(C)(C)c2cc3nc(-c4ccncc4)n(C)c3cc21 | >3 |  |  | 
COc1ccc(-c2nc3cc(C4=NNC(=O)CC4C)ccc3[nH]2)cc1 (stereo not given) [PIMOBENDAN] | 1.3 | 2 | 0.6 | Time (Canis familiaris [4]): 30 min; ED1.5 (Canis familiaris [6]): 1.1 mg/kg; Duration (Canis familiaris [7]): 6 h; Max (Canis familiaris [9]): 1.3 mHg s-1
Cn1c(O)nc2cc3[nH]c(-c4ccnnc4)nc3cc21 | 0.19 |  |  | Duration (Canis familiaris [7]): 0 h; Max (Rattus norvegicus [13]): 2.7
CCn1c(O)nc2cc3[nH]c(-c4ccncc4)nc3cc21 | 0.05 |  | 0.007 | Max (Felis catus [14]): 3.1 mmHg s-1; Max (Rattus norvegicus [15]): 2.3 mmHg s-1; Duration (Canis familiaris [7]): 0 h
CCn1c(O)nc2cc3[nH]c(-c4ccnnc4)nc3cc21 | 0.04 | 3.2 | 0.02 | 
CC1(C)C(=O)Nc2cc3[nH]c(-c4ccc(O)nn4)nc3cc21 | 0.07 | 3.3 |  | 
Oc1nc2cc3[nH]c(-c4ccncc4)nc3cc2[nH]1 | >3 |  |  | 
Cn1c(-c2ccncc2)nc2cc3c(cc21)NC(=O)C3(C)C | >3 |  |  | 
CC1(C)C(=O)Nc2cc3[nH]c(-c4ccco4)nc3cc21 | 0.07 | 2.9 | 0.06 | Time (Canis familiaris [4]): 40 min; ED1.5 (Canis familiaris [6]): 0.06 mg/kg; Duration (Canis familiaris [7]): 2 h; Max (Canis familiaris [12]): 2.7 mHg/s
CC1(C)C(=O)Nc2cc3[nH]c(-c4c[nH]cn4)nc3cc21 | 0.12 |  |  | Time (Canis familiaris [4]): 120 min; ED1.5 (Canis familiaris [6]): 0.07 mg/kg; Duration (Canis familiaris [7]): 2 h; Max (Canis familiaris [9]): 2.7 mHg s-1
CC1(C)C(=O)Nc2cc3[nH]c(-c4cncnc4)nc3cc21 | 0.045 | 3.1 | 0.02 | 
CC1(C)C(=O)Nc2cc3[nH]nnc3cc21 | 0.18 |  |  | Max (Rattus norvegicus [16]): 2.6 mmHg s-1

— ChEMBL document CHEMBL1124518, “Nonsteroidal cardiotonics. 2. The inotropic activity of linear, tricyclic 5-6-5 fused heterocycles” (1989)
